{"source": "patent US7767659B2", "about": "“Synthesis of naturally occurring ecteinascidins and related compounds” (Pharma Mar, S.A., priority 2002, dated 2010)", "key": {"[1]": {"system": "A-549", "experiment": "cells", "details": "Homo sapiens, A549, 48 h; for GI50: read-out: A549 GI50; for CC50: read-out: A549 LC50; for IC (TGI): read-out: A549 TGI", "outline": "(§1)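 Colorimetric SRB read (490 nm) on triplicate wells after 48 h at 37 °C, 5% CO2. Dose range 10 to 10^−8 μg/ml; 5×10^3 cells/well pre-attached 18 h.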"}, "[2]": {"system": "HT-29", "experiment": "cells", "details": "Homo sapiens, HT-29, 48 h; for GI50: read-out: HT29 GI50; for CC50: read-out: HT29 LC50; for IC (TGI): read-out: HT29 TGI", "outline": "as §1"}, "[3]": {"system": "LoVo", "experiment": "cells", "details": "Homo sapiens, LoVo, 48 h; for GI50: read-out: LOVO GI50; for CC50: read-out: LOVO LC50; for IC (TGI): read-out: LOVO TGI", "outline": "as §1"}, "[4]": {"system": "SK-BR-3", "experiment": "Inhibition of cells growth by colorimetric assay (SRB)", "details": "Homo sapiens, SK-BR-3, 48 h; for GI50: read-out: SK-BR3 GI50; for CC50: read-out: SK-BR3 LC50; for IC (TGI): read-out: SK-BR3 TGI", "outline": "as §1"}, "[5]": {"system": "SK-MEL-28", "experiment": "Inhibition of cells growth by colorimetric assay (SRB)", "details": "Homo sapiens, SK-MEL-28, 48 h; for GI50: read-out: MEL-28 GI50; for CC50: read-out: MEL-28 LC50; for IC (TGI): read-out: MEL-28 TGI", "outline": "as §1"}, "[6]": {"system": "LNCaP", "experiment": "Inhibition of cells growth by colorimetric assay (SRB)", "details": "Homo sapiens, LNCaP, 48 h; for GI50: read-out: LNCAP GI50; for CC50: read-out: LNCAP LC50; for IC (TGI): read-out: LNCAP TGI", "outline": "as §1"}, "[7]": {"system": "DU-145", "experiment": "Inhibition of cells growth by colorimetric assay (SRB)", "details": "Homo sapiens, DU-145, 48 h; for GI50: read-out: DU145 GI50; for CC50: read-out: DU145 LC50; for IC (TGI): read-out: DU145 TGI", "outline": "as §1"}, "[8]": {"system": "PANC-1", "experiment": "Inhibition of cells growth by colorimetric assay (SRB)", "details": "Homo sapiens, PANC-1, 48 h; for GI50: read-out: PANC-1 GI50; for CC50: read-out: PANC-1 LC50; for IC (TGI): read-out: PANC-1 TGI", "outline": "as §1"}, "[9]": {"system": "IGROV-ET", "experiment": "Inhibition of cells growth by colorimetric assay (SRB)", "details": "Homo sapiens, 48 h; for GI50: read-out: IGROV-ET GI50; for CC50: read-out: IGROV-ET LC50; for IC (TGI): read-out: IGROV-ET TGI", "outline": "as §1"}, "[10]": {"system": "LoVo-Dox", "experiment": "Inhibition of cells growth by colorimetric assay (SRB)", "details": "Homo sapiens, 48 h; for GI50: read-out: LOVO-DOX GI50; for CC50: read-out: LOVO-DOX LC50; for IC (TGI): read-out: LOVO-DOX TGI", "outline": "as §1"}, "[11]": {"system": "IGROV-1", "experiment": "Inhibition of cells growth by colorimetric assay (SRB)", "details": "Homo sapiens, IGROV-1, 48 h; for GI50: read-out: IGROV GI50; for CC50: read-out: IGROV LC50; for IC (TGI): read-out: IGROV TGI", "outline": "as §1"}, "[12]": {"system": "HeLa", "experiment": "Inhibition of cells growth by colorimetric assay (SRB)", "details": "Homo sapiens, HeLa, 48 h; for GI50: read-out: HELA GI50; for CC50: read-out: HELA LC50; for IC (TGI): read-out: HELA TGI", "outline": "as §1"}, "[13]": {"system": "K-562", "experiment": "Inhibition of cells growth by colorimetric assay (SRB)", "details": "Homo sapiens, K562, 48 h; for GI50: read-out: K562 GI50; for CC50: read-out: K562 LC50; for IC (TGI): read-out: K562 TGI", "outline": "as §1"}, "[14]": {"system": "HeLa-APL", "experiment": "Inhibition of cells growth by colorimetric assay (SRB)", "details": "Homo sapiens, 48 h; for GI50: read-out: HELA-APL GI50; for CC50: read-out: HELA-APL LC50; for IC (TGI): read-out: HELA-APL TGI", "outline": "as §1"}}, "data": [{"compound": "COc1c(C)cc2c(c1O)[C@H]1N[C@@H](C2)[C@H](O)N2C1[C@@H]1SCC(=O)C(=O)OC[C@H]2c2c3c(c(C)c(OC(C)=O)c21)OCO3", "note": "(stereo partly drawn) [compound 43]", "values": [{"measurement": "GI50", "setting": "[1]", "value": 26.1, "unit": "nM"}, {"measurement": "CC50", "setting": "[1]", "value": 148, "unit": "nM"}, {"measurement": "IC (TGI)", "setting": "[1]", "value": 62.1, "unit": "nM"}, {"measurement": "GI50", "setting": "[2]", "value": 24.2, "unit": "nM"}, {"measurement": "CC50", "setting": "[2]", "value": 16700, "unit": "nM"}, {"measurement": "IC (TGI)", "setting": "[2]", "value": 190, "unit": "nM"}, {"measurement": "GI50", "setting": "[3]", "value": 31.2, "unit": "nM"}, {"measurement": "CC50", "setting": "[3]", "value": 16700, "unit": "nM"}, {"measurement": "IC (TGI)", "setting": "[3]", "value": 86.7, "unit": "nM"}, {"measurement": "GI50", "setting": "[4]", "value": 5.83, "unit": "nM"}, {"measurement": "CC50", "setting": "[4]", "value": 164, "unit": "nM"}, {"measurement": "IC (TGI)", "setting": "[4]", "value": 24.2, "unit": "nM"}, {"measurement": "GI50", "setting": "[5]", "value": 9.09, "unit": "nM"}, {"measurement": "CC50", "setting": "[5]", "value": 91, "unit": "nM"}, {"measurement": "IC (TGI)", "setting": "[5]", "value": 32.7, "unit": "nM"}, {"measurement": "GI50", "setting": "[6]", "value": 6.58, "unit": "nM"}, {"measurement": "CC50", "setting": "[6]", "value": 88.7, "unit": "nM"}, {"measurement": "IC (TGI)", "setting": "[6]", "value": 20.2, "unit": "nM"}, {"measurement": "GI50", "setting": "[7]", "value": 13.6, "unit": "nM"}, {"measurement": "CC50", "setting": "[7]", "value": 2920, "unit": "nM"}, {"measurement": "IC (TGI)", "setting": "[7]", "value": 67, "unit": "nM"}, {"measurement": "GI50", "setting": "[8]", "value": 22.9, "unit": "nM"}, {"measurement": "CC50", "setting": "[8]", "value": 2150, "unit": "nM"}, {"measurement": "IC (TGI)", "setting": "[8]", "value": 82.7, "unit": "nM"}, {"measurement": "GI50", "setting": "[9]", "value": 68.5, "unit": "nM"}, {"measurement": "CC50", "setting": "[9]", "value": 5800, "unit": "nM"}, {"measurement": "IC (TGI)", "setting": "[9]", "value": 369, "unit": "nM"}, {"measurement": "GI50", "setting": "[10]", "value": 423, "unit": "nM"}, {"measurement": "CC50", "setting": "[10]", "value": 16700, "unit": "nM"}, {"measurement": "IC (TGI)", "setting": "[10]", "value": 1150, "unit": "nM"}, {"measurement": "GI50", "setting": "[11]", "value": 10.6, "unit": "nM"}, {"measurement": "CC50", "setting": "[11]", "value": 384, "unit": "nM"}, {"measurement": "IC (TGI)", "setting": "[11]", "value": 49.6, "unit": "nM"}, {"measurement": "GI50", "setting": "[12]", "value": 9.39, "unit": "nM"}, {"measurement": "CC50", "setting": "[12]", "value": 145, "unit": "nM"}, {"measurement": "IC (TGI)", "setting": "[12]", "value": 39.9, "unit": "nM"}, {"measurement": "GI50", "setting": "[13]", "value": 3.11, "unit": "nM"}, {"measurement": "CC50", "setting": "[13]", "value": 895, "unit": "nM"}, {"measurement": "IC (TGI)", "setting": "[13]", "value": 13.8, "unit": "nM"}, {"measurement": "GI50", "setting": "[14]", "value": 24.1, "unit": "nM"}, {"measurement": "CC50", "setting": "[14]", "value": 423, "unit": "nM"}, {"measurement": "IC (TGI)", "setting": "[14]", "value": 73.2, "unit": "nM"}]}, {"compound": "COc1cc2c(cc1O)CCN[C@]21CS[C@@H]2c3c(O)c(C)c4c(c3[C@H](COC1=O)N1C2[C@@H]2N[C@@H](Cc3cc(C)c(OC)c(O)c32)[C@@H]1O)OCO4", "note": "(stereo partly drawn) [compound 68]", "values": [{"measurement": "GI50", "setting": "[1]", "value": 28.1, "unit": "nM"}, {"measurement": "CC50", "setting": "[1]", "value": 6290, "unit": "nM"}, {"measurement": "IC (TGI)", "setting": "[1]", "value": 113, "unit": "nM"}, {"measurement": "GI50", "setting": "[2]", "value": 6.66, "unit": "nM"}, {"measurement": "CC50", "setting": "[2]", "value": 14200, "unit": "nM"}, {"measurement": "IC (TGI)", "setting": "[2]", "value": 15, "unit": "nM"}, {"measurement": "GI50", "setting": "[3]", "value": 12, "unit": "nM"}, {"measurement": "CC50", "setting": "[3]", "value": 1930, "unit": "nM"}, {"measurement": "IC (TGI)", "setting": "[3]", "value": 48, "unit": "nM"}, {"measurement": "GI50", "setting": "[4]", "value": 7.2, "unit": "nM"}, {"measurement": "CC50", "setting": "[4]", "value": 14200, "unit": "nM"}, {"measurement": "IC (TGI)", "setting": "[4]", "value": 153, "unit": "nM"}, {"measurement": "GI50", "setting": "[5]", "value": 5.45, "unit": "nM"}, {"measurement": "CC50", "setting": "[5]", "value": 52.1, "unit": "nM"}, {"measurement": "IC (TGI)", "setting": "[5]", "value": 15.7, "unit": "nM"}, {"measurement": "GI50", "setting": "[6]", "value": 1.59, "unit": "nM"}, {"measurement": "CC50", "setting": "[6]", "value": 8.64, "unit": "nM"}, {"measurement": "IC (TGI)", "setting": "[6]", "value": 3.7, "unit": "nM"}, {"measurement": "GI50", "setting": "[7]", "value": 4.68, "unit": "nM"}, {"measurement": "CC50", "setting": "[7]", "value": 14200, "unit": "nM"}, {"measurement": "IC (TGI)", "setting": "[7]", "value": 1.5, "unit": "nM"}, {"measurement": "GI50", "setting": "[8]", "value": 3.9, "unit": "nM"}, {"measurement": "CC50", "setting": "[8]", "value": 2070, "unit": "nM"}, {"measurement": "IC (TGI)", "setting": "[8]", "value": 12.8, "unit": "nM"}, {"measurement": "GI50", "setting": "[9]", "value": 290, "unit": "nM"}, {"measurement": "CC50", "setting": "[9]", "value": 8630, "unit": "nM"}, {"measurement": "IC (TGI)", "setting": "[9]", "value": 1660, "unit": "nM"}, {"measurement": "GI50", "setting": "[10]", "value": 472, "unit": "nM"}, {"measurement": "CC50", "setting": "[10]", "value": 14200, "unit": "nM"}, {"measurement": "IC (TGI)", "setting": "[10]", "value": 14200, "unit": "nM"}, {"measurement": "GI50", "setting": "[11]", "value": 3.94, "unit": "nM"}, {"measurement": "CC50", "setting": "[11]", "value": 35.1, "unit": "nM"}, {"measurement": "IC (TGI)", "setting": "[11]", "value": 8.01, "unit": "nM"}, {"measurement": "GI50", "setting": "[12]", "value": 4, "unit": "nM"}, {"measurement": "CC50", "setting": "[12]", "value": 12.4, "unit": "nM"}, {"measurement": "IC (TGI)", "setting": "[12]", "value": 7.06, "unit": "nM"}, {"measurement": "GI50", "setting": "[13]", "value": 2.65, "unit": "nM"}, {"measurement": "CC50", "setting": "[13]", "value": 234, "unit": "nM"}, {"measurement": "IC (TGI)", "setting": "[13]", "value": 6.6, "unit": "nM"}, {"measurement": "GI50", "setting": "[14]", "value": 3.81, "unit": "nM"}, {"measurement": "CC50", "setting": "[14]", "value": 10.4, "unit": "nM"}, {"measurement": "IC (TGI)", "setting": "[14]", "value": 6.32, "unit": "nM"}]}]}
